Reference: US8815921B2, “Active substance combination based on trifluorobutinyl compounds and exhibiting nematicidal and insecticidal properties” (priority 2003, dated 2014)
Values joined by “and” are separate entries in the source; they are usually repeats but may differ in a detail not shown here. Identical values can stand only once.

Assays:
Format in all cases: in vivo
[1] = tested on: caterpillars of the army worm (Spodoptera frugiperda); assay: Spodoptera frugiperda Test
Experimental: (§1) To produce a suitable preparation of active compound, 1 part by weight of active compound is mixed with the stated amounts of solvent and emulsifier, and the concentrate is diluted with emulsifier containing water to the desired concentration.
Cabbage leaves (Brassica oleracea) are treated by being dipped into the preparation of active compound of the desired concentration and are populated with caterpillars of the army worm (Spodoptera frugiperda) while the leaves are still moist. After the desired period of time, the kill in percent is determined. 100% means that all caterpillars have been killed; 0% means that none of the caterpillars has been killed. The kill rates determined are inserted into Colby's formula (see sheet 34).

[2] = tested on: caterpillars of the diamondback moth (Plutella xylostella, sensitive strain); assay: Plutella Test, sensitive strain; details: for Kill rate [%] after 6 days: 20 ppm
Experimental: as §1
Cabbage leaves (Brassica oleracea) are treated by being dipped into the preparation of active compound of the desired concentration and are populated with caterpillars of the diamondback moth (Plutella xylostella, sensitive strain) while the leaves are still moist. After the desired period of time, the kill in percent is determined. 100% means that all caterpillars have been killed; 0% means that none of the caterpillars has been killed. The kill rates determined are inserted into Colby's formula (see sheet 34).

[3] = tested on: green peach aphid (Myzus persicae); assay: Myzus Test
Experimental: as §1
Cabbage leaves (Brassica oleracea), which are heavily infested by the green peach aphid (Myzus persicae) are treated by being dipped into the preparation of active compound of the desired concentration. After the desired period of time, the kill in % is determined. 100% means that all aphids have been killed; 0% means that none of the aphids has been killed. The kill rates determined are inserted into Colby's formula (see sheet 1).

[4] = tested on: larvae of the mustard beetle (Phaedon cochleariae); assay: Phaedon-Larvae Test; details: cabbage leaf dip
Experimental: as §1
Cabbage leaves (Brassica oleracea) are treated by being dipped into the preparation of active compound of the desired concentration and are populated with larvae of the mustard beetle (Phaedon cochleariae) while the leaves are still moist. After the desired period of time, the kill in percent is determined. 100% means that all beetle larvae have been killed; 0% means that none of the beetle larvae has been killed. The kill rates determined are inserted into Colby's formula (see sheet 34).

## Cc1c(F)c(F)c(COC(=O)[C@@H]2[C@H](/C=C(\Cl)C(F)(F)F)C2(C)C)c(F)c1F (racemic) [tefluthrin]
[1]; 0.8 ppm
  Kill rate [%] after 3 days: 40%
[2]; 0.16 ppm
  Kill rate [%] after 3 days: 20%
[3]; 4 ppm
  Kill rate [%] after 1 day: 0%
[4]; 4 ppm
  Kill rate [%] after 3 days: 75%

## O=S(=O)(CCC(F)=C(F)F)c1ncc(Cl)s1 [(IC)]
[1]; 500 ppm, cabbage leaf dip
  Kill rate [%] after 3 days: 0%
[1]; 500 ppm
  Kill rate [%] after 6 days: 20%
[2]; 500 ppm, cabbage leaf dip
  Kill rate [%] after 3 days: 0% and 5%
[3]; 100 ppm, cabbage leaf dip
  Kill rate [%] after 1 day: 0%
[3]; 100 ppm
  Kill rate [%] after 6 days: 0%
[4]; 500 ppm
  Kill rate [%] after 3 days: 0%

## CCOC(=O)OC1=C(c2cc(C)ccc2C)C(=O)NC12CCC(OC)CC2 (stereo not drawn) [(IIA), carboxylic acid, 3-(2,5-dimethylphenyl)-8-methoxy-2-oxo-1-azaspiro[4.5]dec-3-en-4-yl ethyl ester, (9Cl)]
[1]; 100 ppm
  Kill rate [%] after 6 days: 30%
[2]; 4 ppm
  Kill rate [%] after 3 days: 95%
[3]; 4 ppm
  Kill rate [%] after 6 days: 55%

## CNC(=O)O/N=C/C(C)(C)SC [aldicarb]
[2]
  Kill rate [%] after 6 days: 0%
[4]; 20 ppm
  Kill rate [%] after 3 days: 35%

## CN/C(=N\[N+](=O)[O-])NCc1cnc(Cl)s1 [clothianidin]
[1]; 4 ppm
  Kill rate [%] after 3 days: 85%
[4]; 4 ppm
  Kill rate [%] after 3 days: 15%

## N#Cc1nn(-c2c(Cl)cc(C(F)(F)F)cc2Cl)c(N)c1[S+]([O-])C(F)(F)F (stereo not drawn) [fipronil]
[1]; 0.8 ppm
  Kill rate [%] after 6 days: 0%

## O=[N+]([O-])NC1=NCCN1Cc1ccc(Cl)nc1 [imidacloprid]
[2]
  Kill rate [%] after 6 days: 5%
[4]; 20 ppm
  Kill rate [%] after 3 days: 45%

## CCOP(=S)(Oc1cnc(C(C)(C)C)nc1)OC(C)C (stereo not drawn) [tebupirimfos]
[1]; 0.8 ppm
  Kill rate [%] after 6 days: 0%
[2]; 0.8 ppm
  Kill rate [%] after 3 days: 0%
[3]; 20 ppm
  Kill rate [%] after 6 days: 35%

## spinosad
[1]; 0.16 ppm
  Kill rate [%] after 3 days: 60%
